One compound from ChEMBL document CHEMBL4376816, “Discovery of the Oral Leukotriene C4 Synthase Inhibitor (1S,2S)-2-({5-[(5-Chloro-2,4-difluorophenyl)(2-fluoro-2-methylpropyl)amino]-3-methoxypyrazin-2-yl}carbonyl)cyclopropanecarboxylic Acid (AZD9898) as a New Treatment for Asthma” (J Med Chem, 2019) can be followed below.

Data set [1] in a line: Fraction unbound in human plasma by equilibrium dialysis based LC-MS analysis. It counts as ADME, cell-free.
A short description of data set [2]: Effective half life in Beagle dog at 1 mg/kg, iv infusion or 2 mg/kg, po via gavage after 48 hrs. It counts as ADME, organism-based, Canis lupus familiaris. Conditions: in vivo, read-out: t1/2eff (converted).
Data set [3] can be described thus: Effective half life in cynomolgus monkey at 1 mg/kg, iv or 2 mg/kg, po after 48 hrs. It counts as ADME, organism-based, Macaca fascicularis. The settings on record: in vivo, read-out: t1/2eff (converted).
Data set [4] is described as follows: Effective half life in Han Wistar rat at 0.5 mg/kg, iv or 1 mg/kg, po after 24 hrs. It counts as ADME, organism-based. Conditions: in vivo, read-out: t1/2eff (converted).
A short description of data set [5]: Intrinsic clearance in human hepatocytes at 1 uM assessed as per million cells after 2 to 60 mins by LC-MS/MS analysis. It counts as ADME, cell-based, Hepatocyte. Conditions: read-out: CLH.
The nature of data set [6]: Thermodynamic solubility of compound in pH 7.4 PBS at 1 mg/ml incubated for 24 hrs under shaking condition by LC-MS/MS analysis. Type of data set: physicochemical. Conditions: read-out: Therm_solubility.
A short description of data set [7]: Oral bioavailability in cynomolgus monkey at 2 mg/kg after 48 hrs. The settings on record: in vivo. Type of data set: ADME, organism-based, Macaca fascicularis.
Data set [8] can be described thus: Clearance in Beagle dog at 1 mg/kg, iv infusion or 2 mg/kg, po via gavage after 48 hrs. Type of data set: ADME, organism-based, Canis lupus familiaris. Conditions: in vivo.
The nature of data set [9]: Clearance in cynomolgus monkey at 1 mg/kg, iv or 2 mg/kg, po after 48 hrs. It counts as ADME, organism-based, Macaca fascicularis. The settings on record: in vivo.
Data set [10] is described as follows: Volume of distribution at steady state in Han Wistar rat at 0.5 mg/kg, iv or 1 mg/kg, po after 24 hrs. Conditions: in vivo, read-out: Vdss. It counts as ADME, organism-based.
Data set [11] is described as follows: Volume of distribution at steady state in Beagle dog at 1 mg/kg, iv infusion or 2 mg/kg, po via gavage after 48 hrs. It counts as ADME, organism-based, Canis lupus familiaris. Conditions: in vivo, read-out: Vdss.
Data set [12] can be described thus: Volume of distribution at steady state in cynomolgus monkey at 1 mg/kg, iv or 2 mg/kg, po after 48 hrs. Type of data set: ADME, organism-based, Macaca fascicularis. The settings on record: in vivo, read-out: Vdss.
The nature of data set [13]: Displacement of [3H]-GABA/[3]-muscimol from GABA gated chloride channel in Sprague-Dawley rat cortical synoptic membranes by liquid scintillation analysis. A general note: Loss of bound radioactivity is the signal in a displacement assay; it reports binding, not function.
The nature of data set [14]: Cmax in po dosed rat at NOAEL measured after 7 days. It counts as ADME, organism-based. Also on record: route oral. The settings on record: in vivo.
A further data set addresses Cytochrome P450 2C9 (Homo sapiens, UniProt P11712). As to the kind of experiment: Inhibition of recombinant human CYP2C9 expressed in Escherichia coli using coumarin based substrate by fluorescence assay. Type of data set: ADME.
Another data set deals with Cytochrome P450 2D6 (Homo sapiens, UniProt P10635). As to the kind of experiment: Inhibition of recombinant human CYP2D6 using coumarin based substrate by fluorescence assay. Type of data set: ADME.
Cytochrome P450 2D6, sequence (P10635 whole entry): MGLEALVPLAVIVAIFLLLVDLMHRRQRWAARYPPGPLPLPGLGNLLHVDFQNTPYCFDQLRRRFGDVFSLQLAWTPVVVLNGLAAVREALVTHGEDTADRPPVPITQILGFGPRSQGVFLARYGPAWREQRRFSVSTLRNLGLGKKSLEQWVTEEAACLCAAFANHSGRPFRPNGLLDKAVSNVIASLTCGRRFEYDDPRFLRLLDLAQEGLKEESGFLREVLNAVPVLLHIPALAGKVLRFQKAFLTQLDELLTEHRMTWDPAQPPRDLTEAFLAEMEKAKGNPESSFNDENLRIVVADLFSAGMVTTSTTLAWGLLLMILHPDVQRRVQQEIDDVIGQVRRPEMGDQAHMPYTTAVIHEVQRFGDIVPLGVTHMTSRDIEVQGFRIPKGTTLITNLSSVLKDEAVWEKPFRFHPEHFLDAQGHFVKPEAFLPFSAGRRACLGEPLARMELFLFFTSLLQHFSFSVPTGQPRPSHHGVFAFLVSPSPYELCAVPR
Data set [15] deals with T1, Leukotriene C4 synthase (Homo sapiens) (UniProt Q16873).
T1 sequence (whole entry): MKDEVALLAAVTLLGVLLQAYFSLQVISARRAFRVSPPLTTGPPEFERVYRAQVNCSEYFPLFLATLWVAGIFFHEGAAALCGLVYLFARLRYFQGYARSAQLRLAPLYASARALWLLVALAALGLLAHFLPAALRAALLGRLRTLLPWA
Description: Inhibition of LTC4S in healthy human whole blood assessed as inhibition of calcium ionophore A23187 stimulated cysteinyl leukotrienes production preincuabted for 30 mins followed by calcium ionophore stimulation and measured after 10 mins by LC-MS analysis. It counts as tissue-based.

In data set [16] the test system is Blood. Description: Effect on arachidonic acid pathway in calcium ionophore A23187-stimulated healthy human whole blood assessed as increase in lipoxin level preincubated for 30 mins followed by calcium ionophore A23187 stimulation and measured after 60 mins by LC-MS analysis. Type of data set: functional, tissue-based.
For data set [17], the system named is Blood. As to the kind of experiment: Preservation of LXA4 level in calcium ionophore A23187-stimulated asthmatic human whole blood preincubated for 30 mins followed by calcium ionophore A23187 stimulation and measured after 60 mins by LC-MS analysis. It counts as functional, tissue-based.
The target of data set [18] is Voltage-dependent L-type calcium channel subunit alpha-1C (Homo sapiens, UniProt Q13936). Description: Inhibition of human Cav1.2 expressed in CHOK1 cells at < 33 uM at -65 mV holding potential by Ionwork-based analysis. Type of data set: cell-based.
Voltage-dependent L-type calcium channel subunit alpha-1C, sequence (Q13936 whole entry): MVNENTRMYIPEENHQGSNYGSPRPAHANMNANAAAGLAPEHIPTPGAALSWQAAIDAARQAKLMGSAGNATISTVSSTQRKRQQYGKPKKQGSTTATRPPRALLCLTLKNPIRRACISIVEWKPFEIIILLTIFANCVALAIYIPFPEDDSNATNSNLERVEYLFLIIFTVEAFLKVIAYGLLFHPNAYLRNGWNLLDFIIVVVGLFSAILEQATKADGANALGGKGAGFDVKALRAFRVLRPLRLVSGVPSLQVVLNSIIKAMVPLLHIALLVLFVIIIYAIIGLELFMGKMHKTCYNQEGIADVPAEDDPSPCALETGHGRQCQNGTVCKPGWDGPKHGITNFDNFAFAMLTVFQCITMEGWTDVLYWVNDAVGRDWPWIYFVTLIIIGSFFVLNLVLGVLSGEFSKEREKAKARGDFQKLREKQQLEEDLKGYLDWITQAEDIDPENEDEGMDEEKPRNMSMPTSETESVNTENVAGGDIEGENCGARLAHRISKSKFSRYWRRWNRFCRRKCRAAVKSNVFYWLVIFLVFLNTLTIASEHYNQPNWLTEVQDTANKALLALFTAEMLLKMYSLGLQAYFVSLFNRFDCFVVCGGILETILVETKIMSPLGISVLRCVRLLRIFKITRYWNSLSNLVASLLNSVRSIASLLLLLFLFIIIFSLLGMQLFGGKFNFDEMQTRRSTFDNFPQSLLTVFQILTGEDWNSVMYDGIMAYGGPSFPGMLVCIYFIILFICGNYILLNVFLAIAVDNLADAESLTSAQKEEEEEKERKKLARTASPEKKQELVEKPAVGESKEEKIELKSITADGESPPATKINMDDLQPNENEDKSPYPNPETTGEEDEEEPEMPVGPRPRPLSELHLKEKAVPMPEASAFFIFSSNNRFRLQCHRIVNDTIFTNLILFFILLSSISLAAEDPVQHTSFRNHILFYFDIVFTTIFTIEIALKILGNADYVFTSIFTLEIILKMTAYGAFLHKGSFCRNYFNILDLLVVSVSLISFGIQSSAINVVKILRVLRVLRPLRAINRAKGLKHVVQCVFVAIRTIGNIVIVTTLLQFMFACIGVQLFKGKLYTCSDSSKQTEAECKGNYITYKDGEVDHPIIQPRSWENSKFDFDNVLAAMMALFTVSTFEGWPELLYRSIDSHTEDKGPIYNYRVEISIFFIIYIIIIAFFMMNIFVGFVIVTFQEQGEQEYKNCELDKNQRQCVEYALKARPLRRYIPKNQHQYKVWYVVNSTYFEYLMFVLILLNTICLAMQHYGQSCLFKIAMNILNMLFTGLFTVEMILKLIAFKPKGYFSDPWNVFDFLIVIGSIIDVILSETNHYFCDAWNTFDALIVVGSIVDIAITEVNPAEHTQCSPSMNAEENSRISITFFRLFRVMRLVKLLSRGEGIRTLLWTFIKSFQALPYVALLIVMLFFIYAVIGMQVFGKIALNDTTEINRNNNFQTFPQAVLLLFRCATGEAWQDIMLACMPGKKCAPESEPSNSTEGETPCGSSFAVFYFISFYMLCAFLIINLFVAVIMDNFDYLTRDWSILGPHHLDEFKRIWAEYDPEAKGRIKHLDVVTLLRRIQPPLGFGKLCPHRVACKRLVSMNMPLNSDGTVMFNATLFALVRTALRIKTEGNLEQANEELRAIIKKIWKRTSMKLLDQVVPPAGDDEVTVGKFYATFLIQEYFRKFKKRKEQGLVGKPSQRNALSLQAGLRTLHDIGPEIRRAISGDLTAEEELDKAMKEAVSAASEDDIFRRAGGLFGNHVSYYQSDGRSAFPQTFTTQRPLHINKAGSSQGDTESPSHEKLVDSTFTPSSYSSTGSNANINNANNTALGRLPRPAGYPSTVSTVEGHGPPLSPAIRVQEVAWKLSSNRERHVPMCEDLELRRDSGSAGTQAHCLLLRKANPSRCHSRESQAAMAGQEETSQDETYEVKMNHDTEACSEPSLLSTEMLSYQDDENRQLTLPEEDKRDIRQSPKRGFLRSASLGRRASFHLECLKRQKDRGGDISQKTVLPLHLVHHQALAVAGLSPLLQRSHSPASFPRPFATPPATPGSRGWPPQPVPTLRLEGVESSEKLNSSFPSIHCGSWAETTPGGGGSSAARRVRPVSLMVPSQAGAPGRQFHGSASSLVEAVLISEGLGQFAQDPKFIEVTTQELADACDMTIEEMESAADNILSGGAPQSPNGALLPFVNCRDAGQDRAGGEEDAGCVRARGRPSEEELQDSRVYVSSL
Data set [19] addresses T2, A-type voltage-gated potassium channel KCND3 (Homo sapiens, UniProt Q9UK17).
T2 sequence (Q9UK17 whole entry): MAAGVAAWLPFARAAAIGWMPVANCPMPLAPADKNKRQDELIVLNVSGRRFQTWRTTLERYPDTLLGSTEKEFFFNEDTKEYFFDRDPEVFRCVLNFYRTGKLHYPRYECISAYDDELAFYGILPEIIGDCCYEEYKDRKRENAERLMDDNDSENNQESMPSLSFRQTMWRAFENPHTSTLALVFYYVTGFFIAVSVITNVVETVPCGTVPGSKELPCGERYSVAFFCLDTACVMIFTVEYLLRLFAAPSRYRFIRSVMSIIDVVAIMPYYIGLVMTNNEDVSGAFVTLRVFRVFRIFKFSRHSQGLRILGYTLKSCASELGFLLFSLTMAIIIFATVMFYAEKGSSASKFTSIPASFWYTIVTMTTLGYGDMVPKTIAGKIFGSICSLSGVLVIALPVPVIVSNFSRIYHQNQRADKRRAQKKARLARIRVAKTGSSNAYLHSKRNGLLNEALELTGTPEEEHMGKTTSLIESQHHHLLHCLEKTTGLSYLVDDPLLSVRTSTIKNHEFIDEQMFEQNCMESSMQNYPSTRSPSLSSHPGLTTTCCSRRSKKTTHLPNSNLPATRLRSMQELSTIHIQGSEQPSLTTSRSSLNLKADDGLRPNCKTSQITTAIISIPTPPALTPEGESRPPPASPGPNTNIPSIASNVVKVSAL
Description: Inhibition of human Kv4.3 expressed in CHOK1 cells at < 33 uM at -80 mV holding potential by Ionwork-based analysis. Type of data set: cell-based.

The target of data set [20] is T3, A-type potassium channel modulatory protein KCNIP2 (Homo sapiens) (UniProt Q9NS61).
T3 sequence (whole entry): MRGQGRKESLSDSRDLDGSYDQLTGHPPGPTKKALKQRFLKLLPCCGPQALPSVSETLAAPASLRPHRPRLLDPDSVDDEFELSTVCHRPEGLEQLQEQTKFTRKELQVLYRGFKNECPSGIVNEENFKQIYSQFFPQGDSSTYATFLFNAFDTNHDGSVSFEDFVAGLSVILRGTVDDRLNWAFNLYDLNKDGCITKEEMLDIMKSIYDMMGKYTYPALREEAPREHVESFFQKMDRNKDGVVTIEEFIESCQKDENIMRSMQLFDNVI
Description: Inhibition of human KvChIP2 expressed in CHOK1 cells at < 33 uM at -90 mV holding potential by Ionwork-based analysis. Type of data set: cell-based.

Data set [21] is described as follows: Genotoxicity in Salmonella typhimurium by Ames test. Type of data set: toxicity. The settings on record: salmonella enterica subsp. enterica serovar typhimurium.

In brackets after ≈: the same amount, converted by molar mass. Activity calls are given as the source filed them. The rule behind the calls is not given here. Bounds are passed on as bounds.

Cytochrome P450 2C9, sequence (P11712 whole entry): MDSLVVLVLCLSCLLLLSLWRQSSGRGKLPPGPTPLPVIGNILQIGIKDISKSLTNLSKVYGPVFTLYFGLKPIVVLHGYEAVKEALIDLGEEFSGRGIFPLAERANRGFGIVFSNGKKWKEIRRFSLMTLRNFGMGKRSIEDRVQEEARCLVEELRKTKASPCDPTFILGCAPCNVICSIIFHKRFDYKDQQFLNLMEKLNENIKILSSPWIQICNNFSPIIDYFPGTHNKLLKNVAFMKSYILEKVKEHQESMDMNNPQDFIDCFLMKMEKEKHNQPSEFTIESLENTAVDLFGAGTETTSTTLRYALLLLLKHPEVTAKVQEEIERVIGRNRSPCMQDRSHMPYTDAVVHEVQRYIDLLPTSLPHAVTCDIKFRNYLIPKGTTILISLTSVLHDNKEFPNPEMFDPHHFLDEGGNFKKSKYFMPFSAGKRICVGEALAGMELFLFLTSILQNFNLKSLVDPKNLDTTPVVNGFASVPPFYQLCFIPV

Consider `COc1nc(N(CC(C)(C)F)c2cc(Cl)c(F)cc2F)cnc1C(=O)[C@H]1C[C@@H]1C(=O)O` [AZD-9898], for which, in data set [1], the fraction unbound (usually the share of the substance not bound to proteins or other matrix) turned out to be 0.036. Also, the half-life in data set [2] is 6.1 h; in data set [3] it was 12 h; in data set [4], 26 h. Also, the hepatocyte CLint at 1 µM in [5] was under 1.2 µL/min/1e6 cells. For the same compound, the solubility thermodynamic at 24 h in data set [6] was determined as 2080 µM (≈ 952 µg/mL). The bioavailability (usually dose-corrected exposure relative to a reference, in per cent) in data set [7] turned out to be 90%. For the same compound, the clearance in data set [8] came out at 1.8 mL/min/kg; in data set [9], 0.6 mL/min/kg. Besides, the Vd in data set [10] was 5.3 L/kg; in data set [11], 1 L/kg; in data set [12] it was 0.6 L/kg. Also, the IC50 (commonly the concentration that inhibits the measured activity by half) in data set [13] is over 100 µM; on Cytochrome P450 2C9, over 30 µM; at Cytochrome P450 2D6, over 30 µM. The Cmax (as a rule, the peak of the concentration-time curve) at […] in data set [14] was found to be 349 µM. In addition, in data set [15], the inhibition entry is “Active”. In addition, the Activity entry in the data set on Blood [16] was “Dose-dependent effect”; in the data set with Blood [17], “Dose-dependent effect”; in data set [21], “Non-Toxic”. Besides, the “inhibition (INH)” value in data set [18] and in data set [19] was “Not Active” each time. Moreover, in data set [20], the inhibition entry was “inactive”.
